Data as given in patent US9115059B2, “Oxime derivatives of 3,5-seco-4-nor-cholestane, pharmaceutical compositions containing same, and method for preparing same” (TROPHOS, priority 2008, dated 2015).

Tested on: motoneurons
Experiment: Survival of motoneurons under trophic deprivation in vitro (calcein fluorescence)
Format: cell-based
Settings: concentration 0.3 μM; E14 rat motoneurons, 3 days of culture in Neurobasal medium without trophic factors
Excerpt: It may be useful to refer to patent application WO 0142784 of the applicant regarding culture of the motoneurons of the spinal cord.
The spinal cord of E14 rat embryos is dissected and the ventral part is dissociated by trituration after trypsinization.
The motoneurons are separated from the other spinal cells by a known method (Camu et al., 1993, Purification of spinal motoneurons from chicken and rat embryos by immunopanning. In “Immunoselection Strategies for Neural cell culture”, Neuroprotocols: A companion to Methods in Neurosciences 2, 191-199; Henderson et al., 1993, Neutrophins promote motoneuron survival and are present in embryonic limb bud. Nature 363 (6426):266-70).
The cells are centrifuged on a density gradient. The motoneurons are enriched in the fraction of large cells (the […]). The cells of this fraction are incubated with an anti-p75 antibody, a surface antigen present on motoneurons.
Secondary antibodies coupled to magnetic beads are added and the mixture of cells is passed through a column in a magnet (Arce et al., 1999 Cardiotrophin-1 requires LIFRbeta to promote survival of mouse motoneurons purified by a novel technique. J. Neurosci Res 55(1): 119-26). Only the motoneurons are retained: their purity is of the order of 90%.
The motoneurons are seeded at low density in culture wells on a polyornithine-laminin substrate in a Neurobasal medium (GIBCO) supplemented according to Raoul et al., 1999, Programmed cell death of embryonic motoneurons triggered through the Fas death receptor. J Cell Biol 147(5):1049-62.
Negative controls (absence of trophic factors) and positive controls (in the presence of BDNF (Brain-Derived Neurotrophic Factor) at 1 ng/ml, GDNF (Glial-Derived Neurotrophic Factor) at 1 ng/ml and CNTF (Ciliary Neurotrophic Factor) at 10 ng/ml, marketed by the American company PEPROTECH, Inc. and the company Sigma-Aldrich, are included in each series.
The test compounds are added 60 minutes after seeding and the cultures are kept at 37° C. under 5% CO2 for 3 days.
The motoneurons have a spontaneous tendency to die in the absence of neurotrophic factors (Pettmann and Henderson, 1998, Neuronal cell death. Neuron 20(4):633-47). After 3 days, survival is evaluated by measurement of fluorescence after incubation of the cells in the presence of calcein, which becomes fluorescent in living cells.
After 3 days of culture at 37° C., under 5% CO2 and at saturating humidity, up to 50% of the motoneurons seeded initially survive in the medium supplemented with neurotrophic factors, whereas less than 15% of the motoneurons survive in the culture medium without addition of neurotrophic factors.
The neuroprotective activity of the test compounds was evaluated by their capacity for preventing death of motoneurons when they are added to the Neurobasal medium (GIBCO) in comparison with the survival of motoneurons in the medium to which neurotrophic factors were added.
This survival rate is expressed by the number of living cells after treatment with the test compound relative to the survival induced by the neurotrophic factors. This ratio can therefore represent the percentage survival due to the compound tested relative to the survival induced by the neurotrophic factors. If the ratio is greater than 0, the compounds have a positive effect on survival of the motoneurons.

Compound	Ratio (living cells after treatment with the test compound relative to the survival induced by the neurotrophic factors)
CC(C)CCC[C@@H](C)[C@H]1CCC2C3CC/C(=N/O)[C@](C)(CCCN(C)C(=O)CCCC[C@@H]4SC[C@@H]5NC(=O)N[C@@H]54)C3CC[C@@]21C (stereo partly drawn) [Compound 4, 3-[(N-(+)-biotinoyl-N-methyl)amino]-4-nor-3,5-secocholestan-5-one oxime]	>0.2

Same assay, conditions: concentration 1 μM; E14 rat motoneurons, 3 days of culture in Neurobasal medium without trophic factors

Compound	Ratio (living cells after treatment with the test compound relative to the survival induced by the neurotrophic factors)
CC(C)CCCC(C)C1CCC2C3C=CC(=NO)C(C)(CCCO)C3CCC12C (stereo not drawn) [Compound 8, 4-nor-3,5-secocholest-6-en-3-ol-5-one oxime]	>0.2
CC(C)CCCC(C)C1CCC2C3CCC(=NO)C(C)(CCO)C3CCC12C (stereo not drawn) [Compound 10, 3,4-dinor-2,5-secocholestan-2-ol-5-one oxime]	>0.2
CC(C)CCC[C@@H](C)[C@H]1CCC2C3CC/C(=N/O)[C@](C)(CCCN(C)c4ccc([N+](=O)[O-])c5nonc45)C3CC[C@@]21C (stereo partly drawn) [Compound 5, 3-[methyl-(7-nitro-2,1,3-benzoxadiazol-4-yl)amino]-4-nor-3,5-secocholestan-5-one oxime]	>0.2
7-hydroxyamino-4-nor-3,5-secocholest-6-year-3-ol-5-one oxime [Compound 9]	>0.2
CCC(C=CC(C)C1CCC2C3CCC(=NO)C(C)(CCCO)C3CCC12C)C(C)C (stereo not drawn) [Compound 12, 24β-ethyl-4-nor-3,5-secocholest-22-en-3-ol-5-one oxime]	>0.2
CC(C)CCCC(C)C1CCC2C3CCC(=NO)C(C)(CCC(O)C(F)(F)F)C3CCC12C (stereo not drawn) [Compound 3, 4-nor-3,5-seco-3-(trifluoromethyl)cholestan-3-ol-5-one oxime]	>0.2
CC(C)=CCCC(C)C1CCC2C3CCC(=NO)C(C)(CCCO)C3CCC12C (stereo not drawn) [Compound 11, 4-nor-3,5-secocholest-24-en-3-ol-5-one oxime]	>0.2
CCCC1(C)C(=NO)CCC2C1CCC1(C)C(C(C)CCCC(C)C)CCC21 (stereo not drawn) [Compound 7, 4-nor-3,5-secocholestan-5-one oxime]	>0.2

Same assay, conditions: concentration 3 μM; E14 rat motoneurons, 3 days of culture in Neurobasal medium without trophic factors

Compound	Ratio (living cells after treatment with the test compound relative to the survival induced by the neurotrophic factors)
CC(CCCC(C)(C)F)C1CCC2C3CCC(=NO)C(C)(CCCO)C3CCC12C (stereo not drawn) [Compound 6, 25-fluoro-4-nor-3,5-secocholestan-3-ol-5-one oxime]	>0.2
CC(CCCC(C)(C)O)C1CCC2C3CCC(=NO)C(C)(CCCO)C3CCC12C (stereo not drawn) [Compound 2, 4-nor-3,5-secocholestan-3,25-diol-5-one oxime]	>0.2

Tested on: avidins (streptavidin or neutravidin)
Experiment: not given
Settings: cited from earlier work

Compound	Ka (affinity of avidins for biotin)
O=C(O)CCCC[C@@H]1SC[C@@H]2NC(=O)N[C@@H]21 [biotin]	~10^7 M
